One experiment concerns 3T3L1 cells. Put plainly: 2-deoxyglucose uptake in differentiated 3T3L1 adipocytes. Conditions: for basal glucose uptake: no insulin, untreated 3.3±0.67.
Experiment [1] concerns ERK1/2 phosphorylation. Put plainly: ERK1/2 phosphorylation in rat hippocampal slices (Western blot). It counts as cell-based. As to conditions: 10^−8M, 30 min. The method, then: The potential of IRAP/AT4 ligands to activate MAPK or CREB was initially investigated on rat hippocampal slices. Rats were killed by decapitation and the hippocampi removed, four hundred μm thick slices cut and incubated in aCSF. […] Slices were then lysed in 200 μl of ice-cold lysis buffer (10 mM Tris-HCl pH 7.5, 50 mM NaCl, 1% triton X-100, 30 mM sodium pyrophosphate, 50 mM NaF, 5 μM ZnCl2, 0.1 mM sodium orthovanadate, 1 mM DTT, 5 nM okadaic acid, 1×Boehringer Protease inhibitor cocktail) and centrifuged at full speed. The lysates were then heated at 95° C. for 10 min in 6×SDS loading buffer and the proteins (30 μg per lane) resolved on 7.5% SDS-poylacrylamide gels. After transfer of proteins to PVDF membranes, blots were probed overnight at 4° C. with anti phospho-p44/42 MAP kinase (Thr202/Tyr204) antibody and detected by chemiluminescence using ECL blotting detection reagents and a Fuji LAS-1000.
On the technique in general: Immunoblotting shows a protein as a band on a membrane.

A further experiment deals with rats. As to conditions: cited from earlier work.
The subject of experiment [2] is ERK1/2 phosphorylation.
Procedure: The ability of AT4 ligands to stimiuladte MAPK phosphorylation directly was investigated in HEK293 cells transfected with human IRAP. HEK293 cells were transfected with pCI-IRAP or with empty vector, plated on to 12-well plates at a density of 60,000 cells/well and grown in complete medium containing 0.2% fetal calf serum. […] The proteins were then transferred on to nitrocellulose membranes and incubated with phospho-MAPK (p44/42) antibodies and visualised with HRP-conjugated secondary antibody, using the ECL-plus western blot detection system.
Experiment [3] deals with T1, human insulin-regulated aminopeptidase (IRAP) / angiotensin IV (AT4) receptor (human, UniProt Q9UIQ6 1-1025). Put plainly: cell-based or functional assay.
Experiment [4] concerns the target T1, human insulin-regulated aminopeptidase …. Put plainly: competitive inhibition of L-leucine-β-naphthylamide cleavage by solubilised membranes of IRAP-transfected HEK 293 cells; Ki from IC50=Ki(1+[S]/Km).
Experiment [5] has the same target. Put plainly: radioligand displacement of 125I-Nle-Ang IV. Background: Loss of bound radioactivity is the signal in a displacement assay; it reports binding, not function.
For experiment [6] the target is unchanged. In words: competition with 125I-Nle1 Ang IV on IRAP-transfected cells.

Like-named read-outs stand apart in the source and are kept apart here. Where a SMILES comes first, the peptide text is derived from it.

T1 sequence (Q9UIQ6 whole entry): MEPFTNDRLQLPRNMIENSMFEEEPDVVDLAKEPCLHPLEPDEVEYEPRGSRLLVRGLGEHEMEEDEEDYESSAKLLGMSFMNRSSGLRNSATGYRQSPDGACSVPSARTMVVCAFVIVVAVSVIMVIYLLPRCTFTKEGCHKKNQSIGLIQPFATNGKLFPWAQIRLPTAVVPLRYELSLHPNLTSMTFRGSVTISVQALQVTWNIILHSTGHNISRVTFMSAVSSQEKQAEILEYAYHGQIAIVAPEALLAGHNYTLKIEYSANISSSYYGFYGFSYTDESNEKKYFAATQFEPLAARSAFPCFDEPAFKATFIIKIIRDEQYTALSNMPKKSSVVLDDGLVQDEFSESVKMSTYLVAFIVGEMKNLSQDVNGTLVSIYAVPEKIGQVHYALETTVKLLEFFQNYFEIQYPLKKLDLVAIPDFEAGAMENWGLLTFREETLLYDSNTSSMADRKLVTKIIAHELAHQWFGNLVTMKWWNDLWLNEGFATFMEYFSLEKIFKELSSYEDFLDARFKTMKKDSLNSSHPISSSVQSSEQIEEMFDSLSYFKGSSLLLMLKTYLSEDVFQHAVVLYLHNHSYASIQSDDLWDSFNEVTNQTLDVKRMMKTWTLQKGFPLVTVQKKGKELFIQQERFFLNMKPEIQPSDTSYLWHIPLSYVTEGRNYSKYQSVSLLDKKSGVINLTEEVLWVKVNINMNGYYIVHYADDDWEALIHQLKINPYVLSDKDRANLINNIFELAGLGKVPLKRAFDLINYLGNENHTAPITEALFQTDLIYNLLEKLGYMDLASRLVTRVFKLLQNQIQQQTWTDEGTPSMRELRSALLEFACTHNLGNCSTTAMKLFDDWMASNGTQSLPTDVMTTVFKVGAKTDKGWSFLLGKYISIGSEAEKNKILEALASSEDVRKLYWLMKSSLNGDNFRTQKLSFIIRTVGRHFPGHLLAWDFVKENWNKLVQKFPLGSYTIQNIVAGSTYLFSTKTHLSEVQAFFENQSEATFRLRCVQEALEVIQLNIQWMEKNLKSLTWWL
Procedure for 3T3L1 cells: The effect of IRAP inhibitors on the regulation of glucose uptake was determined in 3T3L1 cells. 3T3L1 fibroblasts were differentiated by the addition of DMEM containing 5% fetal calf serum, 4 μg/ml insulin, 0.25 mM dexamethasone and 0.5 mM 3-isobutyl-1-methyl-xanthine. […] The reaction was stopped after 10 min by washing the cells in PBS. The cells were then solubilized in 0.5 N NaOH and counted.

With `CCCC[C@H](N)C(=O)N[C@@H](Cc1ccc(O)cc1)C(=O)N[C@H](C(=O)N[C@@H](Cc1c[nH]cn1)C(=O)N1CCC[C@H]1C(=O)N[C@@H](Cc1ccccc1)C(=O)O)[C@@H](C)CC` [Nle^1-Ang IV, Nle′-YIHPF] (HELM PEPTIDE1{[Nle].Y.I.H.P.F}$$$$V2.0; N-terminus and C-terminus assumed), the insulin-stimulated glucose uptake is 18.3 ± 2.39 pmol/min/well in the experiment on 3T3L1 cells (10^−6 M peptide with 0.7 nM insulin), 23.02 ± 1.52 pmol/min/well in the experiment with 3T3L1 cells (10^−6 M peptide with 70 nM insulin), 12.2 ± 2.29 pmol/min/well in the experiment with 3T3L1 cells (10^−7 M peptide with 0.7 nM insulin) and 22.99 ± 2.8 pmol/min/well with 3T3L1 cells (10^−7 M peptide with 70 nM insulin). In addition, the basal glucose uptake with 3T3L1 cells (10^−6 M) was 7.6±1.21 pmol/min/well; in the experiment with 3T3L1 cells (10^−7 M) it was 7.2±1.79 pmol/min/well. For the same molecule, the “increase of basal glucose uptake” value in the experiment on 3T3L1 cells (both concentrations (10^−7 and 10^−6 M)) is recorded as “two-fold”. Moreover, the ERK1/2 phosphorylation result was “induced phosphorylation of ERK1/2” in the experiment with ERK1/2 phosphorylation [1] and “induced the phosphorylation of ERK1/2” in the experiment on ERK1/2 phosphorylation [2]. Moreover, in the experiment with rats (chronic infusion (6 days), 0.1 to 0.5 nmol/h, lateral ventricle), the “performance in the swim maze task” value was “enhanced performance”. Also, in the experiment on rats (given acutely into the lateral ventricles), the “memory deficits induced by scopolamine” value is recorded as “reversed the memory deficits”.

B1: LVV-hemorphin 7 (LVVYPWTQRF) (peptide)
peptide: LVVYPWTQRF
notes: Globin fragment purified from sheep cerebral cortex; synthetic peptide used in the assays; also called LVV-H7; LV-H7
What is called Ki is the equilibrium dissociation constant of an inhibitor or competing ligand from its target. Usually IC50 stands for the midpoint of a concentration-inhibition curve. Higher therefore signals lower potency. Consider B1, for which the “IC50 inhibition leucine β-naphthylamide” value in experiment [3] is 1500 nM. This molecule showed a Ki in experiment [4] of 845 nM. This molecule also gave an IC50 in experiment [5] of 140 nM.

B2: KYLPGPLQ (complexin II fragment) (peptide)
peptide: KYLPGPLQ
notes: Purified from blood-free sheep cerebral cortex; synthetic peptide used in the assays; also called complexin fragment
For the molecule B2, the binding result in experiment [6] is “binds”.

The values above are taken from US20050020519A1, “Modulation of insulin-regulated aminopeptidase (irap)/angiotensin iv (at4) receptor activity” (priority 2001, published 2005).
